Measured values from patent publication EP2181998B1, “New benzothiazinone derivative and its use as antibacterial agent” (priority 2006, dated 2007).
In brackets after ≈: the same amount, converted by molar mass.

How the values were obtained:
M. vaccae IMET 10 10670 = format: cell-based
[1] = system: Mycobacterium smegmatis SG 987; format: cell-based; conditions: Mycolicibacterium smegmatis, SG987; read-out: MIC M. smegmatis
[2] = system: Mycobacterium tuberculosis clinical isolate 6374; format: cell-based
[3] = system: Mycobacterium tuberculosis H37Rv and clinical isolates 6341 and 6374; experiment: MIC and MBC, classical method, over several strains; format: cell-based
[4] = system: Mycobacterium tuberculosis clinical isolate 6341; format: cell-based
[5] = system: Mycobacterium tuberculosis H37Rv; experiment: Murine TB model (experimental hematogenously disseminated tuberculosis); format: in vivo, BALB/c line mice; conditions: for Injury index: daily 6 times per week, four-score scale, liver, spleen and lungs; for Efficacy index (%): 100% - injury index of group / injury index of control x 100; for right lung Culture, without dilution CFU / spleen Culture, without dilution CFU: 42 days after inoculation of the culture medium
[6] = Toxicity after per os administration; conditions: mice
in vivo = conditions: mouse

For `CC1COC2(CCN(c3nc(=O)c4cc(C(F)(F)F)cc([N+](=O)[O-])c4s3)CC2)O1` (centres unmarked) [Compound 2, 2-(2-methyl-1,4-dioxa-8-azaspiro[4.5]dec-8-yl)-8-nitro-6-(trifluoromethyl)-1,3-benzothiazin-4-one], the “MIC M.vaccae” value (M. vaccae IMET 10 10670) was 0,76pg/ml, the MIC [1] was 0.00156 µg/mL (≈ 0.00362 µM) and the MBC [2] was 0.39 µg/mL (≈ 0.904 µM). It also gave an MIC [2] of 0.195 µg/mL (≈ 0.452 µM), an MBC ([3]; read-out: MBC (µg/mL) mean) of 0.45 µg/mL (≈ 1.04 µM) and an MIC ([3]; read-out: MIC (µg/mL) mean) of 0.29 µg/mL (≈ 0.672 µM). The MBC [4] was 0.39 µg/mL (≈ 0.904 µM), the MIC [4] was 0.29 µg/mL (≈ 0.672 µM) and the Injury index ([5]; 12 mg/kg orally) was 2,1. The “Efficacy index (%)” value ([5]; 12 mg/kg orally) was 44,7%, the “right lung Culture, without dilution CFU” value ([5]; 12 mg/kg orally) was “∼ 60 CFU” and the “spleen Culture, without dilution CFU” value ([5]; 12 mg/kg orally) was “∼ 60 CFU”. The Injury index ([5]; 25 mg/kg orally) was 1,0, the “Efficacy index (%)” value ([5]; 25 mg/kg orally) was 78% and the “right lung Culture, without dilution CFU” value ([5]; 25 mg/kg orally) was “∼ 35 CFU”. The “spleen Culture, without dilution CFU” value ([5]; 25 mg/kg orally) was “∼ 35 CFU”, the Survival of animals ([5]; Group 3, 12 mg/kg oral, day of treatment 1, of 10 animals) was 10 and the Survival of animals ([5]; Group 3, 12 mg/kg oral, day of treatment 2, of 10 animals) was 10. The Survival of animals ([5]; Group 3, 12 mg/kg oral, day of treatment 3, of 10 animals) was 10, the Survival of animals ([5]; Group 3, 12 mg/kg oral, day of treatment 4, of 10 animals) was 10 and the Survival of animals ([5]; Group 3, 12 mg/kg oral, day of treatment 5, of 10 animals) was 10. For the same compound, the Survival of animals ([5]; Group 3, 12 mg/kg oral, day of treatment 6, of 10 animals) was 10, the Survival of animals ([5]; Group 3, 12 mg/kg oral, day of treatment 7, of 10 animals) was 10 and the Survival of animals ([5]; Group 3, 12 mg/kg oral, day of treatment 8, of 10 animals) was 10. The Survival of animals ([5]; Group 3, 12 mg/kg oral, day of treatment 9, of 10 animals) was 10, the Survival of animals ([5]; Group 3, 12 mg/kg oral, day of treatment 10, of 10 animals) was 10 and the Survival of animals ([5]; Group 3, 12 mg/kg oral, day of treatment 11, of 10 animals) was 10. It also gave a Survival of animals ([5]; Group 3, 12 mg/kg oral, day of treatment 12, of 10 animals) of 10, a Survival of animals ([5]; Group 3, 12 mg/kg oral, day of treatment 13, of 10 animals) of 10 and a Survival of animals ([5]; Group 3, 12 mg/kg oral, day of treatment 14, of 10 animals) of 10. The Survival of animals ([5]; Group 3, 12 mg/kg oral, day of treatment 15, of 10 animals) was 10, the Survival of animals ([5]; Group 3, 12 mg/kg oral, day of treatment 16, of 10 animals) was 10 and the Survival of animals ([5]; Group 3, 12 mg/kg oral, day of treatment 17, of 10 animals) was 10. The Survival of animals ([5]; Group 3, 12 mg/kg oral, day of treatment 18, of 10 animals) was 10, the Survival of animals ([5]; Group 3, 12 mg/kg oral, day of treatment 19, of 10 animals) was 10 and the Survival of animals ([5]; Group 3, 12 mg/kg oral, day of treatment 20, of 10 animals) was 10. It also gave a Survival of animals ([5]; Group 3, 12 mg/kg oral, day of treatment 21, of 10 animals) of 10, a Survival of animals ([5]; Group 3, 12 mg/kg oral, day of treatment 22, of 10 animals) of 10 and a Survival of animals ([5]; Group 3, 12 mg/kg oral, day of treatment 23, of 10 animals) of 10. It also gave a Survival of animals ([5]; Group 3, 12 mg/kg oral, day of treatment 24, of 10 animals) of 10, a Survival of animals ([5]; Group 3, 12 mg/kg oral, day of treatment 25, of 10 animals) of 10 and a Survival of animals ([5]; Group 3, 12 mg/kg oral, day of treatment 26, of 10 animals) of 10. For the same compound, the Survival of animals ([5]; Group 3, 12 mg/kg oral, day of treatment 27) was 100%, the Survival of animals ([5]; Groups 4/5, 25 mg/kg oral, day of treatment 1, of 10 animals) was 10 and the Survival of animals ([5]; Groups 4/5, 25 mg/kg oral, day of treatment 2, of 10 animals) was 10. The Survival of animals ([5]; Groups 4/5, 25 mg/kg oral, day of treatment 3, of 10 animals) was 10, the Survival of animals ([5]; Groups 4/5, 25 mg/kg oral, day of treatment 4, of 10 animals) was 10 and the Survival of animals ([5]; Groups 4/5, 25 mg/kg oral, day of treatment 5, of 10 animals) was 10. For the same compound, the Survival of animals ([5]; Groups 4/5, 25 mg/kg oral, day of treatment 6, of 10 animals) was 10, the Survival of animals ([5]; Groups 4/5, 25 mg/kg oral, day of treatment 7, of 10 animals) was 10 and the Survival of animals ([5]; Groups 4/5, 25 mg/kg oral, day of treatment 8, of 10 animals) was 10. For the same compound, the Survival of animals ([5]; Groups 4/5, 25 mg/kg oral, day of treatment 9, of 10 animals) was 10, the Survival of animals ([5]; Groups 4/5, 25 mg/kg oral, day of treatment 10, of 10 animals) was 10 and the Survival of animals ([5]; Groups 4/5, 25 mg/kg oral, day of treatment 11, of 10 animals) was 10. For the same compound, the Survival of animals ([5]; Groups 4/5, 25 mg/kg oral, day of treatment 12, of 10 animals) was 10, the Survival of animals ([5]; Groups 4/5, 25 mg/kg oral, day of treatment 13, of 10 animals) was 10 and the Survival of animals ([5]; Groups 4/5, 25 mg/kg oral, day of treatment 14, of 10 animals) was 10. For the same compound, the Survival of animals ([5]; Groups 4/5, 25 mg/kg oral, day of treatment 15, of 10 animals) was 10, the Survival of animals ([5]; Groups 4/5, 25 mg/kg oral, day of treatment 16, of 10 animals) was 10 and the Survival of animals ([5]; Groups 4/5, 25 mg/kg oral, day of treatment 17, of 10 animals) was 10. For the same compound, the Survival of animals ([5]; Groups 4/5, 25 mg/kg oral, day of treatment 18, of 10 animals) was 10, the Survival of animals ([5]; Groups 4/5, 25 mg/kg oral, day of treatment 19, of 10 animals) was 10 and the Survival of animals ([5]; Groups 4/5, 25 mg/kg oral, day of treatment 20, of 10 animals) was 10. The Survival of animals ([5]; Groups 4/5, 25 mg/kg oral, day of treatment 21, of 10 animals) was 10, the Survival of animals ([5]; Groups 4/5, 25 mg/kg oral, day of treatment 22, of 10 animals) was 10 and the Survival of animals ([5]; Groups 4/5, 25 mg/kg oral, day of treatment 23, of 10 animals) was 10. For the same compound, the Survival of animals ([5]; Groups 4/5, 25 mg/kg oral, day of treatment 24, of 10 animals) was 10, the Survival of animals ([5]; Groups 4/5, 25 mg/kg oral, day of treatment 25, of 10 animals) was 10 and the Survival of animals ([5]; Groups 4/5, 25 mg/kg oral, day of treatment 26, of 10 animals) was 10. For the same compound, the Survival of animals ([5]; Groups 4/5, 25 mg/kg oral, day of treatment 27) was 100%, the mice survived ([5]; murine model of tuberculosis infection, all control animals died until day 33) was 100% and the toxicity ([6]; doses ranging up to 2000 mg/kg) was “non toxic”. The animal death ([6]; doses up to 2000 mg/kg, during 7 days of investigations) was “no cases of animal death” and the LD50 (in vivo) was over 2000 mg/kg.
